Reference: patent US20240190880A1 (THE REGENTS OF THE UNIVERSITY OF MICHIGAN, priority 2021, published 2024)
Like-named read-outs stand apart in the source and are kept apart here.

Biological target: T1, ER (Homo sapiens, UniProt P03372)
T1 construct: host or cells: T47D and MCF7 human breast cancer cells
T1 sequence (P03372 1-595): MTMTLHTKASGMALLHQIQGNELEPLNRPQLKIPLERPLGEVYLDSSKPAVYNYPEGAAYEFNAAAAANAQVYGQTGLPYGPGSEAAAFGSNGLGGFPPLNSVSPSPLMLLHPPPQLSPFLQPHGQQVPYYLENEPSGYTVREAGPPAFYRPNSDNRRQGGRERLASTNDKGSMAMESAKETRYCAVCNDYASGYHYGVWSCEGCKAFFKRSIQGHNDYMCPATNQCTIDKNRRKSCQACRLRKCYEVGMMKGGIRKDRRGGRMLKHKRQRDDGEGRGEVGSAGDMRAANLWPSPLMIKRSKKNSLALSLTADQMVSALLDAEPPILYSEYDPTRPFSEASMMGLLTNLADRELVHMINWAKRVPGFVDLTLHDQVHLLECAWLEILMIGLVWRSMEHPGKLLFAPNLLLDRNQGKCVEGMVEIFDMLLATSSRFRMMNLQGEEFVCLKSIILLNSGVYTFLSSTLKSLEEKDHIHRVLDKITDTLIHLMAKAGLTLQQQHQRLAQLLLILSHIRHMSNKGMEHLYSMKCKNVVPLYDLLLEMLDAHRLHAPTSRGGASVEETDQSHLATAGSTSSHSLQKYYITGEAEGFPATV
Experiment: ER degradation activity, in-cell western blot analysis in T47D cells
Format: cell-based
How it was run: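 Cells were seeded overnight, exposed to diluted compounds for 16 hours, then stained with primary antibodies and with infrared-labelled secondary antibodies (1:1000, 1 h RT). Plates were scanned on a CLX reader, and ER levels were normalised to DMSO-treated wells.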

[1] = compounds 16 hours, Table A does not say whether T47D or MCF7, read-out: Potency (DC50)
[2] = 16 hours, Table A does not say which cell line (T47D or MCF7), read-out: Potency (DC50)

Compound	DC50 [1]	DC50 [2]
C[C@@H]1Cc2cc(O)ccc2[C@@H](c2ccc(C(=O)N3CCC4(CCC(CN5Cc6cc7c(cc6C5)C(=O)N(C5CCC(=O)NC5=O)C7=O)CC4)CC3)cc2)N1CC(F)F (stereo partly drawn) [E 454, 6-((3-(4-((1R,3R)-2-(2,2-difluoroethyl)-6-hydroxy-3-methyl-1,2,3,4-tetrahydroisoquinolin-1-yl)benzoyl)-3-azaspiro[5.5]undecan-9-yl)methyl)-2-(2,6-dioxopiperidin-3-yl)-6,7-dihydropyrrolo[3,4-f]isoindole-1,3(2H,5H)-dione]	> 100 nM	–
C[C@@H]1Cc2c([nH]c3ccccc23)[C@@H](c2c(F)cc(N3CCC(CN4CCC5(CC4)CC(N4Cc6cc7c(cc6C4)C(=O)N(C4CCC(=O)NC4=O)C7=O)C5)CC3)cc2F)N1CC(F)F (stereo partly drawn) [E 132, 6-(7-((1-(4-((1R,3R)-2-(2,2-difluoroethyl)-3-methyl-2,3,4,9-tetrahydro-1H-pyrido[3,4-b]indol-1-yl)-3,5-difluorophenyl)piperidin-4-yl)methyl)-7-azaspiro[3.5]nonan-2-yl)-2-(2,6-dioxopiperidin-3-yl)-6,7-dihydropyrrolo[3,4-f]isoindole-1,3(2H,5H)-dione]	–	10 to 100 nM
O=C1CCC(N2C(=O)c3cc4c(cc3C2=O)CN(CC(=O)N2CCC3(CC2)CCN(c2ccc([C@@H]5c6ccc(O)cc6CC[C@@H]5C5CCCCC5)cc2)CC3)C4)C(=O)N1 (mixture of isomers) [E 177, Rac-6-(2-(9-(4-((1R,2R)-2-cyclohexyl-6-hydroxy-1,2,3,4-tetrahydronaphthalen-1-yl)phenyl)-3,9-diazaspiro[5.5]undecan-3-yl)-2-oxoethyl)-2-(2,6-dioxopiperidin-3-yl)-6,7-dihydropyrrolo[3,4-f]isoindole-1,3(2H,5H)-dione]	–	10 to 100 nM
O=C1CCC(N2C(=O)c3cc4c(cc3C2=O)CN(CC(=O)N2CC3(CCN(c5ccc([C@@H]6c7ccc(O)cc7CC[C@@H]6c6ccccc6)cc5)CC3)C2)CC4)C(=O)N1 (mixture of isomers) [E 163, rac-2-(2,6-dioxopiperidin-3-yl)-6-(2-(7-(4-((1R,2S)-6-hydroxy-2-phenyl-1,2,3,4-tetrahydronaphthalen-1-yl)phenyl)-2,7-diazaspiro[3.5]nonan-2-yl)-2-oxoethyl)-5,6,7,8-tetrahydro-1H-pyrrolo[3,4-g]isoquinoline-1,3(2H)-dione]	–	10 to 100 nM
C[C@@H]1Cc2c([nH]c3ccccc23)[C@@H](c2ccc(C3=CCC(C(=O)N4CCC(N5Cc6cc7c(cc6C5)C(=O)N(C5CCC(=O)NC5=O)C7=O)CC4)CC3)cc2F)N1CC(C)(C)F (stereo partly drawn) [E 481, 2-(2,6-dioxopiperidin-3-yl)-6-(1-(3′-fluoro-4′-((1R,3R)-2-(2-fluoro-2-methylpropyl)-3-methyl-2,3,4,9-tetrahydro-1H-pyrido[3,4-b]indol-1-yl)-2,3,4,5-tetrahydro-[1,1′-biphenyl]-4-carbonyl)piperidin-4-yl)-6,7-dihydropyrrolo[3,4-f]isoindole-1,3(2H,5H)-dione]	10 to 100 nM	–
O=C1CCC(N2C(=O)c3cc4c(cc3C2=O)CN(CC(=O)NC2CCN(c3ccc([C@@H]5c6ccc(O)cc6CC[C@@H]5c5ccccc5)cc3)CC2)C4)C(=O)N1 (stereo partly drawn) [E331, 2-(6-(2,6-dioxopiperidin-3-yl)-5,7-dioxo-3,5,6,7-tetrahydropyrrolo[3,4-f]isoindol-2(1H)-yl)-N-(1-(4-((1R,2S)-6-hydroxy-2-phenyl-1,2,3,4-tetrahydronaphthalen-1-yl)phenyl)piperidin-4-yl)acetamide]	–	> 100 nM
C[C@@H]1Cc2c([nH]c3ccccc23)[C@@H](c2c(F)cc(C3CCC(C(=O)N4CCC(CN5Cc6cc7c(cc6C5)C(=O)N(C5CCC(=O)NC5=O)C7=O)CC4)CC3)cc2F)N1CC(F)F (stereo partly drawn) [E248, 6-((1-(4-(4-((1R,3R)-2-(2,2-difluoroethyl)-3-methyl-2,3,4,9-tetrahydro-1H-pyrido[3,4-b]indol-1-yl)-3,5-difluorophenyl)cyclohexane-1-carbonyl)piperidin-4-yl)methyl)-2-(2,6-dioxopiperidin-3-yl)-6,7-dihydropyrrolo[3,4-f]isoindole-1,3(2H,5H)-dione]	–	> 100 nM
